Experimental data published in PubChem BioAssay AID248 (DTP/NCI, 2004).
Values joined by “and” are separate entries in the source; they are usually repeats but may differ in a detail not shown here. Identical values can stand only once. Inconclusive results and toxic doses are left out. Rule as the data show it: active = T/C of 150% or more; inactive = T/C below 125%.

Tested on: L1210 leukemia ip in BDF1 mice, survival T/C
Assay: NCI In Vivo Anticancer Drug Screen. Data for tumor model L1210 Leukemia (intraperitoneal) in B6D2F1 (BDF1) mice
Conditions: endpoint: mean survival time, higher = longer survival
Method in brief: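 Mice bearing the transplanted tumor received compound or vehicle. Survival of the treated group was divided by that of the vehicle-treated control group to give the ratio.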

[1] = dose: 100.0 mg/kg/injection, schedule: Q04DX002 (ip), vehicle: Klucel (hydroxypropylcellulose) (HPC)
[2] = dose: 200.0 mg/kg/injection, schedule: Q04DX002 (ip), vehicle: Klucel (hydroxypropylcellulose) (HPC)
[3] = dose: 400.0 mg/kg/injection, schedule: Q04DX002 (ip), vehicle: Klucel (hydroxypropylcellulose) (HPC)
[4] = dose: 100.0 mg/kg/injection, schedule: Q01DX001 (ip), vehicle: saline
[5] = dose: 200.0 mg/kg/injection, schedule: Q01DX001 (ip), vehicle: saline
[6] = dose: 400.0 mg/kg/injection, schedule: Q01DX001 (ip), vehicle: saline
[7] = dose: 100.0 mg/kg/injection, schedule: Q01DX009 (ip), vehicle: Klucel (hydroxypropylcellulose) (HPC)
[8] = dose: 200.0 mg/kg/injection, schedule: Q01DX009 (ip), vehicle: Klucel (hydroxypropylcellulose) (HPC)
[9] = dose: 400.0 mg/kg/injection, schedule: Q01DX009 (ip), vehicle: Klucel (hydroxypropylcellulose) (HPC)
[10] = dose: 100.0 mg/kg/injection, schedule: Q04DX003 (ip), vehicle: saline
[11] = dose: 200.0 mg/kg/injection, schedule: Q04DX003 (ip), vehicle: saline
[12] = dose: 400.0 mg/kg/injection, schedule: Q04DX003 (ip), vehicle: saline
[13] = dose: 100.0 mg/kg/injection, schedule: Q04DX003 (ip), vehicle: Klucel (hydroxypropylcellulose) (HPC)
[14] = dose: 200.0 mg/kg/injection, schedule: Q04DX003 (ip), vehicle: Klucel (hydroxypropylcellulose) (HPC)
[15] = dose: 400.0 mg/kg/injection, schedule: Q04DX003 (ip), vehicle: Klucel (hydroxypropylcellulose) (HPC)
[16] = dose: 50.0 mg/kg/injection, schedule: Q01DX001 (ip), vehicle: saline
[17] = dose: 100.0 mg/kg/injection, schedule: Q01DX001 (ip), vehicle: Klucel (hydroxypropylcellulose) (HPC)
[18] = dose: 200.0 mg/kg/injection, schedule: Q01DX001 (ip), vehicle: Klucel (hydroxypropylcellulose) (HPC)
[19] = dose: 400.0 mg/kg/injection, schedule: Q01DX001 (ip), vehicle: Klucel (hydroxypropylcellulose) (HPC)
[20] = dose: 25.0 mg/kg/injection, schedule: Q01DX009 (ip), vehicle: Klucel (hydroxypropylcellulose) (HPC)
[21] = dose: 50.0 mg/kg/injection, schedule: Q01DX009 (ip), vehicle: Klucel (hydroxypropylcellulose) (HPC)

Measured: T/C

CC12CCC(O)CC1=CCC1C2CCC2(C)C1CCC2(O)C#CCN(CCCl)CCCl (stereo not given)
inactive: dose: 50.0 mg/kg/injection, schedule: Q04DX003 (sc), vehicle: steriod suspending solution 93 % of control | dose: 100.0 mg/kg/injection, schedule: Q04DX003 (sc), vehicle: steriod suspending solution 112 % of control | dose: 200.0 mg/kg/injection, schedule: Q04DX003 (sc), vehicle: steriod suspending solution 100 % of control | dose: 400.0 mg/kg/injection, schedule: Q04DX003 (sc), vehicle: steriod suspending solution 99 % of control

Cc1cccc(NC(C(=O)O)c2ccccc2)c1 (stereo not given)
inactive: [1] 100 % of control | [2] 93 % of control | [3] 89 % of control

O=C1OCC(O)=C1Cc1ccccc1
inactive: [4] 101 % of control | [5] 89 % of control | [6] 94 % of control

COc1ccc(Cl)cc1NC(=O)c1ccccc1Cl
inactive: [7] 95 % of control | [8] 102 % of control | [9] 101 % of control

CCOC(=O)/C=C/C(=O)O
inactive: dose: 50.0 mg/kg/injection, schedule: Q01DX001 (ip), vehicle: carboxymethylcellulose (CMC) 111 % of control | dose: 75.0 mg/kg/injection, schedule: Q01DX001 (ip), vehicle: carboxymethylcellulose (CMC) 86 % of control | dose: 100.0 mg/kg/injection, schedule: Q01DX001 (ip), vehicle: carboxymethylcellulose (CMC) 105 % of control | [10] 95 % of control and 109 % of control | dose: 200.0 mg/kg/injection, schedule: Q01DX001 (ip), vehicle: carboxymethylcellulose (CMC) 114 % of control | [11] 103 % of control and 109 % of control | dose: 400.0 mg/kg/injection, schedule: Q01DX001 (ip), vehicle: carboxymethylcellulose (CMC) 101 % of control | [12] 95 % of control and 97 % of control

CC(C)(C)c1cc(Cc2cc(C(C)(C)C)c(O)c(C(C)(C)C)c2)cc(C(C)(C)C)c1O
inactive: dose: 100.0 mg/kg/injection, schedule: Q04DX003 (ip), vehicle: saline with Tween-80 96 % of control | dose: 200.0 mg/kg/injection, schedule: Q04DX003 (ip), vehicle: saline with Tween-80 98 % of control | dose: 400.0 mg/kg/injection, schedule: Q04DX003 (ip), vehicle: saline with Tween-80 104 % of control

O=S1(=O)CC(CBr)=C(CBr)C1
inactive: dose: 15.0 mg/kg/injection, schedule: Q01DX001 (ip), vehicle: carboxymethylcellulose (CMC) 94 % of control | dose: 30.0 mg/kg/injection, schedule: Q01DX001 (ip), vehicle: carboxymethylcellulose (CMC) 93 % of control | dose: 60.0 mg/kg/injection, schedule: Q01DX001 (ip), vehicle: carboxymethylcellulose (CMC) 100 % of control

Clc1ccc(N=Cc2ccccc2)cc1
inactive: [7] 104 % of control | [13] 95 % of control | [8] 103 % of control | [14] 96 % of control | [9] 98 % of control | [15] 104 % of control

CCOC(=O)C1(CC)CNCC(CC)(C(=O)OCC)C1=O (stereo not given)
inactive: [16] 103 % of control | [4] 104 % of control | [5] 101 % of control | [6] 97 % of control

O=C(Nc1cccc(C(F)(F)F)c1)Nc1ccc(Cl)cc1Cl
inactive: [17] 96 % of control | [7] 95 % of control and 108 % of control | [1] 95 % of control and 100 % of control | [13] 86 % of control | [18] 91 % of control | [8] 94 % of control and 104 % of control | [2] 100 % of control and 88 % of control | [14] 94 % of control | [19] 93 % of control | [9] 95 % of control and 97 % of control | [3] 98 % of control and 104 % of control | [15] 92 % of control

CN(C)c1ccc2c(c1)N=Nc1cc(N(C)C)ccc1C2
inactive: [17] 87 % of control | [18] 91 % of control | [19] 87 % of control

CCCC[n+]1ccc(C(N)=O)cc1
inactive: [10] 100 % of control | [11] 100 % of control

Nc1ccc(-c2ccc(-n3cccc3)cc2)cc1
inactive: dose: 25.0 mg/kg/injection, schedule: Q01DX001 (ip), vehicle: saline 100 % of control | [16] 96 % of control | [4] 109 % of control

NC(=O)C1C2CC3OC(=O)C1C3C2 (stereo not given)
inactive: [10] 93 % of control and 103 % of control | [11] 102 % of control and 100 % of control | [12] 96 % of control and 88 % of control

O=C1OC(=O)C2C=CC=CC12 (stereo not given)
inactive: dose: 100.0 mg/kg/injection, schedule: Q04DX002 (ip), vehicle: saline with Tween-80 92 % of control | dose: 200.0 mg/kg/injection, schedule: Q04DX002 (ip), vehicle: saline with Tween-80 103 % of control | dose: 400.0 mg/kg/injection, schedule: Q04DX002 (ip), vehicle: saline with Tween-80 95 % of control

CCOC(=O)C(C#N)C1CCCCC1 (stereo not given)
inactive: [20] 109 % of control | [21] 102 % of control | dose: 100.0 mg/kg/injection, schedule: Q01DX001 (ip), vehicle: saline with Tween-80 98 % of control | [7] 102 % of control | [13] 102 % of control | dose: 200.0 mg/kg/injection, schedule: Q01DX001 (ip), vehicle: saline with Tween-80 95 % of control | [14] 107 % of control | [15] 100 % of control

Clc1cccc(N2CCN(c3c4c(nc5ccccc35)CCCCC4)CC2)c1
inactive: [4] 93 % of control | [5] 88 % of control | [6] 90 % of control

CN(C)N=Nc1c(O)ccc2c1CCC1C2CCC2(C)C(=O)CCC12 (stereo not given)
inactive: dose: 12.5 mg/kg/injection, schedule: Q01DX009 (ip), vehicle: Klucel (hydroxypropylcellulose) (HPC) 92 % of control | [20] 94 % of control | [21] 107 % of control

CCOC(=O)N1CC2CCc3c(ccc4ccccc34)N2C1=O (stereo not given)
inactive: dose: 100.0 mg/kg/injection, schedule: Q01DX001 (ip), vehicle: other 97 % of control | dose: 200.0 mg/kg/injection, schedule: Q01DX001 (ip), vehicle: other 92 % of control | dose: 400.0 mg/kg/injection, schedule: Q01DX001 (ip), vehicle: other 95 % of control

Brc1cccc[n+]1CCCC[n+]1ccccc1Br
inactive: dose: 2.2 mg/kg/injection, schedule: Q01DX Z (ip), vehicle: saline 96 % of control | dose: 3.3 mg/kg/injection, schedule: Q01DX Z (ip), vehicle: saline 100 % of control | dose: 5.0 mg/kg/injection, schedule: Q01DX Z (ip), vehicle: saline 87 % of control | dose: 10.0 mg/kg/injection, schedule: Q01DX001 (ip), vehicle: saline 96 % of control | dose: 20.0 mg/kg/injection, schedule: Q01DX001 (ip), vehicle: saline 93 % of control
